According to patent US20200216493A1, “ANTIMICROBIAL PEPTIDES” (FERRING B.V., priority 2016, published 2020):
Values after ≈ are worked out from the molar mass of the structure shown. Where two headings read alike, the source gives them in different places.

Assays:
[1] = system: E.coli; type: cell-based, Escherichia coli; details: for MIC ratio Coli/Staph: ratio of E. coli MIC to S. aureus MIC
Description: (§1) This assay was used to determine the minimum concentration of a test compound (i.e., an antimicrobial peptide described herein) able to inhibit the growth of a bacterial strain of interest. This is a standard method for measuring and comparing the potency of peptide-based antibacterial agents (Steinberg et al., Antimicrobial Agents and Chemotherapy 1997, 41 (8) 1738 - 1742 and Wiegand et al., Nature Protocols 2008, 3, 163-175).
(§2) The MIC is reported in units of μg/mL.
(§3) Bacterial cultures were grown by inoculating Mueller-Hinton Broth (MHB) with 3 or 4 representative colony (typical size, color, and shape) from a bacterial strain grown on a LB agar plate. Inoculated liquid cultures were grown at 37° C. with moderate shaking (200-250 rpm) until bacteria produced a visibly turbid suspension. Bacterial inoculum was approximated by measuring the optical density at 600 nm (0D600) of the bacterial culture against a sterile MHB blank. Typically, OD600=0.10 corresponds to ˜1×10^8 cfu/mL for S.aureus and OD600 =0.15 corresponds to ˜1×10^8 cfu/mL for E.coli.
(§4) Test compounds were prepared as stock solutions in vehicle at a concentration 10 times the highest concentration to be tested for antibacterial activity (usually 320 μg/mL stock solutions). 2x serial dilutions in vehicle (at 10× the final test concentrations) of the test compounds were prepared from the test compound stock solutions in a non-binding 96 well plate.
(§5) In a sterile clear flat bottom 96 well plate, 15 μL of each test compound dilution was added to 135 μL of ˜5×10^5 cfu/mL bacterial culture. Each concentration was tested in duplicate. Each experiment contained positive control wells for bacterial growth (i.e., no test compound added to bacteria) and sterility controls wells (i.e., sterile MHB and no test compounds added). 96 well plates containing bacterial cultures and test compounds were incubated at 37° C. for 16-20 hours with shaking at 200 rpm.
(§6) After incubation, the MIC of each test compound was determined by measuring the OD600 of each well using a plate reader. Wells with OD600 >0.08 were considered to have bacterial growth and wells with OD600<0.08 were considered to have no bacterial growth. The lowest concentration of test agent able to inhibit bacterial growth (0D600<0.08 after 16-20 hours) was defined as the MIC.

[2] = system: S.aureus; type: cell-based, Staphylococcus aureus
Description: as §1, §2, §3, §4, §5, §6

[3] = system: S. aureus (14 isolates); type: cell-based, Staphylococcus aureus; details: 20 h
Description: (§7) The broth microdilution susceptibility assay followed the procedure described by the Clinical and Laboratory Standards Institute (CLSI) in CLSI document M7-A10.
(§8) The following bacteria isolates were tested:
(§9) S.aureus, S.epidermidis, E.faecalis, and E.faecium colonies were grown on TSA (Tryptone Soya Agar; cat.N. P05012A -OXOID) S.pneumoniae and S.pyogenes colonies were grown on TSASB ((TSA) Agar +5% Sheep Blood; cat.N. PB5012A -OXOID). An inoculum was prepared by making a direct saline suspension of isolated colonies selected from an 18 to 24 hours agar plate incubated at 35±2 ° C. in ambient air. The suspension was adjusted to achieve a turbidity equivalent to a 0.5 McFarland turbidity standard (1 to 2 ×10^8 Colony Forming Units (CFU)) and diluted 200 fold within 15 minutes in broth. (S.aureus, S.epidermidis, E.faecalis, and E.faecium were diluted in CAMHB: Mueller Hinton Broth 2, Cation-Adjusted (cat. N. 90922 Fluka); S.pneumoniae and S.pyogenes were diluted in CAMHB +2.5% lysed horse blood. All broth contained 0.002% polysorbate 80.
(§10) 96-well plates were prepared containing 1 μL of the test compound (at 100× desired test concentration in 100% DMSO); compounds were tested at 8 final concentrations, i.e. 16 μg/mL, 8 μg/mL, 4 μg/mL, 2 μg/mL, 1 μg/mL, 0.5 μg/mL, 0.25 μg/mL, and 0.125 μg/mL. 100 μL of the broth dilution was dispensed in each well plate to have a final bacterial concentration in plate of ˜5×10^5 CFU/mL. The plates were incubated at 35±2° C. in ambient air for 20 hours.

[4] = system: S. epidermidis (5 isolates); type: cell-based, Staphylococcus epidermidis; details: 20 h
Description: as §7, §8, §9, §10

[5] = system: S. pneumoniae (8 isolates); type: cell-based, Streptococcus pneumonia; details: 20 h
Description: as §7, §8, §9, §10

[6] = system: S. pyogenes (2 isolates); type: cell-based, Streptococcus pyogenes; details: 20 h
Description: as §7, §8, §9, §10

[7] = system: E. faecalis (5 isolates); type: cell-based, Enterococcus faecalis; details: 20 h
Description: as §7, §8, §9, §10

[8] = system: E. faecium (3 isolates); type: cell-based, Enterococcus faecium; details: 20 h
Description: as §7, §8, §9, §10

[9] = in vitro; type: cell-based; details: human, HepG2 cells
Description: Compounds were tested for cytotoxicity to a mammalian cell line HepG2 (Human hepatocyte carcinoma from ECACC (85011430)). Hep G2 cells were seeded into 96-well plates, 7500 cells/well in 100 μl medium (Minimum Essential Medium (Gibco 21090) supplemented with 2 mM L-Glutamine, 1% non-essential amino acids and 10% fetal bovine serum) and incubated for 20 hours at 37° C., 5% CO2. 100 μL of fresh medium containing a test compound or DMSO (for control) at 2× final concentration were added and incubated for 48 hours at 37° C., 5% CO2. The final concentration of DMSO in plate was 1%. At the end of this incubation, 20 μl MTT (Thiazolyl Blue Tetrazolium Bromide) solution 5 mg/ml in H2O (0.5 mg/ml final in well) was added to all wells. Cells were incubated with MTT for 4 hours at 37° C., 5% CO2. After incubation, medium containing MTT was removed; 200 μl of DMSO was added in each well and plates were put on a shaker for 5 minutes. Absorbance was read on a SpectraMax plate reader at 570 nm. Specific absorbance (Specific A570) was calculated by subtracting the mean absorbance values of the blank wells (no HepG2 cells) from each well. Control values were determined from wells containing cells and treated with medium+1% DMSO only (no test compound). % viability was calculated as:
(Specific A570test compound/Specific A570control)×100.

[10] = system: C. difficile
[11] = system: B. fragilis

Structure (SMILES) | MIC E. coli [1] | MIC ratio Coli/Staph [1] | MIC S. aureus [2] | S. Aureus (14) MIC90 [3] | S. epidermidis (MIC90) (5) [4] | S. pneumoniae (8) MIC90 [5] | S. pyogenes (2) MIC90 [6] | E. faecalis (5) MIC90 [7] | E. faecium (3) MIC90 [8] | MIC C. difficile [10] | MIC B. fragilis [11] | MIC C. difficile ([10]; anaerobic broth microdilution, read after 44-48 hours, Example 17b) | viability at 48 h, 100 µM [9]
CC[C@H](C)[C@H](NC(=O)[C@@H](Cc1ccc(Cl)cc1)NC)C(=O)N[C@@H](CO)C(=O)N[C@H](CCC(N)=O)C(=O)N[C@@H](C(=O)N[C@H](C(=O)N[C@@H](CO)C(=O)N[C@H]1C(=O)N[C@@H](C)C(=O)N[C@@H](CCCCNC(=N)N)C(=O)N[C@@H]([C@@H](C)CC)C(=O)O[C@H]1C)[C@@H](C)CC)[C@@H](C)CC [Compound 70, H-D-MePhe(4-Cl)-Ile-Ser-D-Gln-D-aIle-Ile-Ser-c(D-Thr-Ala-Har-Ile)] | >16 µg/mL | >530 | 0.03 to 0.06 µg/mL | ≤0.12 µg/mL | ≤0.12 µg/mL | ≤0.12 µg/mL | ≤0.12 µg/mL | 0.25 µg/mL | ≤0.12 µg/mL | 0.015 to 0.03 µg/mL | >32 µg/mL |  | 114%
CC[C@H](C)[C@H](NC(=O)[C@@H](Cc1ccc(OC)cc1)NC)C(=O)N[C@@H](CO)C(=O)N[C@H](CCC(N)=O)C(=O)N[C@@H](C(=O)N[C@H](C(=O)N[C@@H](CO)C(=O)N[C@H]1C(=O)N[C@@H](C)C(=O)N[C@@H](CCCCNC(=N)N)C(=O)N[C@@H]([C@@H](C)CC)C(=O)O[C@H]1C)[C@@H](C)CC)[C@@H](C)CC [Compound 74, H-D-MeTyr(Me)-Ile-Ser-D-Gln-D-aIle-Ile-Ser-c(D-Thr-Ala-Har-Ile)] | >16 µg/mL | >530 | 0.06 µg/mL (≈ 0.0466 µM) | ≤0.12 µg/mL | ≤0.12 µg/mL | ≤0.12 µg/mL | ≤0.12 µg/mL | 1 µg/mL | 0.5 µg/mL | 0.06 to 0.12 µg/mL | >32 µg/mL |  | 136%
CC[C@H](C)[C@H](NC(=O)[C@@H](Cc1ccccc1)NC)C(=O)N[C@@H](CO)C(=O)N[C@H](CCC(N)=O)C(=O)N[C@@H](C(=O)N[C@H](C(=O)N[C@@H](CO)C(=O)N[C@H]1C(=O)N[C@@H](C)C(=O)N[C@@H](Cc2ccc(NC(=N)N)cc2)C(=O)N[C@@H]([C@@H](C)CC)C(=O)O[C@H]1C)[C@@H](C)CC)[C@@H](C)CC [Compound 72, H-D-MePhe-Ile-Ser-D-Gln-D-aIle-Ile-Ser-c(D-Thr-Ala-Phe(4-guanidino)-Ile)] | >16 µg/mL | >128 | 0.12 to 0.25 µg/mL | 0.25 µg/mL | ≤0.12 µg/mL | ≤0.12 µg/mL | ≤0.12 µg/mL | 0.5 µg/mL | 0.5 µg/mL | 0.25 to 0.5 µg/mL | >32 µg/mL |  | 115%

Further lines, with some results ahead:

MIC E. coli [1] | MIC ratio Coli/Staph [1] | MIC S. aureus [2] | S. Aureus (14) MIC90 [3] | S. epidermidis (MIC90) (5) [4] | S. pneumoniae (8) MIC90 [5] | S. pyogenes (2) MIC90 [6] | E. faecalis (5) MIC90 [7] | E. faecium (3) MIC90 [8] | MIC C. difficile [10] | MIC B. fragilis [11] | MIC C. difficile ([10]; anaerobic broth microdilution, read after 44-48 hours, Example 17b) | Structure (SMILES) | viability at 48 h, 100 µM [9]
>16 µg/mL | >530 | 0.06 µg/mL (≈ 0.0459 µM) | ≤0.12 µg/mL | ≤0.12 µg/mL | ≤0.12 µg/mL | ≤0.12 µg/mL | ≤0.12 µg/mL | ≤0.12 µg/mL | 0.015 to 0.03 µg/mL | >32 µg/mL |  | CC[C@H](C)[C@H](NC(=O)[C@@H](Cc1ccc2ccccc2c1)NC)C(=O)N[C@@H](CO)C(=O)N[C@H](CCC(N)=O)C(=O)N[C@@H](C(=O)N[C@H](C(=O)N[C@@H](CO)C(=O)N[C@H]1C(=O)N[C@@H](C)C(=O)N[C@@H](CCCCNC(=N)N)C(=O)N[C@@H]([C@@H](C)CC)C(=O)O[C@H]1C)[C@@H](C)CC)[C@@H](C)CC [Compound 75, H-D-Me2Nal-Ile-Ser-D-Gln-D-aIle-Ile-Ser-c(D-Thr-Ala-Har-Ile)] | 119%
10 µg/mL (≈ 7.95 µM) | 77 | 0.13 µg/mL (≈ 0.103 µM) | 0.25 µg/mL | ≤0.12 µg/mL | ≤0.12 µg/mL | ≤0.12 µg/mL | 0.5 µg/mL | 0.5 µg/mL |  | >32 µg/mL | <0.03 to 0.06 µg/mL | CC[C@H](C)[C@H](NC(=O)[C@@H](Cc1ccccc1)NC)C(=O)N[C@@H](CO)C(=O)N[C@H](CCC(N)=O)C(=O)N[C@@H](C(=O)N[C@H](C(=O)N[C@@H](CO)C(=O)N[C@H]1C(=O)N[C@@H](C)C(=O)N[C@@H](CCCCNC(=N)N)C(=O)N[C@@H]([C@@H](C)CC)C(=O)O[C@H]1C)[C@@H](C)CC)[C@@H](C)CC [Compound 5, H-D-MePhe-Ile-Ser-D-Gln-D-aIle-Ile-Ser-c(D-Thr-Ala-Har-Ile)] | 117%
